Test results: US9802960B2 (MILLENNIUM PHARMACEUTICALS, INC., priority 2014, dated 2017)

target: Human VPS34 (Homo sapiens (Human), UniProt Q8NEB9); assay: Human VPS34 enzyme assay (Adapta TR-FRET); assay type: biochemical; settings: compound concentration 1.11 μM
Sequence (Q8NEB9 whole entry): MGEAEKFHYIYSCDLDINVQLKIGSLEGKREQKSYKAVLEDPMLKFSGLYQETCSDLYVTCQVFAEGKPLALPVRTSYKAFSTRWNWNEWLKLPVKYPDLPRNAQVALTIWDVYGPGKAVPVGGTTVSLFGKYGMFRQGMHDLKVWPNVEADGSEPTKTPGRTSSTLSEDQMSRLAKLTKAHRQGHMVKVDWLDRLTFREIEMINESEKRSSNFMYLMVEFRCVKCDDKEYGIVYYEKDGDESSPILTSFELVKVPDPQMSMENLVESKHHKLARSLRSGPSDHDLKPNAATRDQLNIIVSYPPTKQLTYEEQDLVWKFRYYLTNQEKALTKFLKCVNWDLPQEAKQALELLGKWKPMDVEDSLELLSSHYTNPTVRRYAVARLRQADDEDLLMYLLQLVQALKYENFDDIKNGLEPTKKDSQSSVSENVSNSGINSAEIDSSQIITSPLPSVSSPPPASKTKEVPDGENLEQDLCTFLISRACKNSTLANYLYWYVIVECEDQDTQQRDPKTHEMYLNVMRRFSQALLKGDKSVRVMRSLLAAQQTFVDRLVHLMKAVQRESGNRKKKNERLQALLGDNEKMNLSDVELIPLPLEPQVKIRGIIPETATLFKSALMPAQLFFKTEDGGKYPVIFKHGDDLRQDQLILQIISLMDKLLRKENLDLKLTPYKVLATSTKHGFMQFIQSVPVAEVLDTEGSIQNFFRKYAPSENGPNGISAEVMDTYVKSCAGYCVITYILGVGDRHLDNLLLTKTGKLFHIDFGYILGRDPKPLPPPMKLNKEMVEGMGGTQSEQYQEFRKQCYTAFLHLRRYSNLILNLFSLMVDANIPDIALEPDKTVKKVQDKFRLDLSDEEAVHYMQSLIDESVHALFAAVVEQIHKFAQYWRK

In the case of `CC(=O)Nc1cc(-c2cnc(Cl)c(S(=O)(=O)N[C@H](CO)c3ccccc3)c2)ccn1` [Compound I-330, N-(6-chloro-5-{[(1S)-2-hydroxy-1-phenylethyl]sulfamoyl}-3,4′-bipyridin-2′-yl)acetamide], the “Percent Inhibition” value was greater than 99%.

same assay, conditions: compound concentration 1.11 μM; read-out: Percent Inhibition

First: Cc1ncc(-c2ccnc(Nc3ccn(C)n3)c2)cc1NS(=O)(=O)c1ccc(F)cc1F [Compound I-301, 2,4-difluoro-N-{6-methyl-2′-[(1-methyl-1H-pyrazol-3-yl)amino]-3,4′-bipyridin-5-yl}benzenesulfonamide]
Second: Cc1ccc(Nc2cc(-c3cnc(C)c(NS(=O)(=O)c4ccc(F)cc4F)c3)ccn2)nn1 [Compound I-307, 2,4-difluoro-N-{6-methyl-2′-[(6-methylpyridazin-3-yl)amino]-3,4′-bipyridin-5-yl}benzenesulfonamide]
The inhibition at 1.11 µM of the first is lower: 96% for the first, greater than 99% for the second.

First: CCN(CC)C(=O)c1cc(-c2ccnc(Nc3ccnc(C)n3)c2)cnc1C [Compound I-302, N,N-diethyl-6-methyl-2′-[(2-methylpyrimidin-4-yl)amino]-3,4′-bipyridine-5-carboxamide]
Second: Cc1nccc(Nc2cc(-c3cnc(C)c(C(=O)N4CCC4)c3)ccn2)n1 [Compound I-304, Azetidin-1-yl(6-methyl-2′-((2-methylpyrimidin-4-yl)amino)-3,4′-bipyridin-5-yl)methanone]
The inhibition at 1.11 µM of the first is lower: 83% for the first, 96% for the second.

Going from `CN(C(=O)c1cc(-c2ccnc(Nc3ccncn3)c2)cnc1N)C12CC(C1)C2` [Compound I-303, 6-amino-N-(bicyclo[1.1.1]pent-1-yl)-N-methyl-2′-(pyrimidin-4-ylamino)-3,4′-bipyridine-5-carboxamide] to `Cc1nccc(Nc2cc(-c3cnc(N(C)C)c(C(=O)N(C)C45CC(C4)C5)c3)ccn2)n1` [Compound I-306, N-(bicyclo[1.1.1]pent-1-yl)-6-(dimethylamino)-N-methyl-2′-((2-methylpyrimidin-4-yl)amino)-3,4′-bipyridine-5-carboxamide], the inhibition at 1.11 µM rises from 95% to greater than 99%.

Compared with `Cc1ncc(-c2ccnc(NC(=O)C3CCC3)c2)cc1NS(=O)(=O)c1ccc(F)cc1F` [Compound I-305, N-(5-{[(2,4-difluorophenyl)sulfonyl]amino}-6-methyl-3,4′-bipyridin-2′-yl)cyclobutanecarboxamide], `Cc1ncc(-c2ccnc(NC(=O)N3CCCC3)c2)cc1NS(=O)(=O)c1ccc(F)cc1F` [Compound I-313, N-(5-{[(2,4-difluorophenyl)sulfonyl]amino}-6-methyl-3,4′-bipyridin-2′-yl)pyrrolidine-1-carboxamide] is lower in inhibition at 1.11 µM: 94% for the first, 88% for the second.

First: Cc1c(-c2ccnc(Nc3ccncn3)c2)cnc(Cl)c1NS(=O)(=O)c1ccccc1 [Compound I-309, N-[6-chloro-4-methyl-2′-(pyrimidin-4-ylamino)-3,4′-bipyridin-5-yl]benzenesulfonamide]
Second: CC(=O)Nc1cc(-c2cnc(Cl)c(NS(=O)(=O)c3ccccc3)c2C)ccn1 [Compound I-312, N-{6-chloro-4-methyl-5-[(phenylsulfonyl)amino]-3,4′-bipyridin-2′-yl}acetamide]
The inhibition at 1.11 µM of the first is lower: 99% for the first, greater than 99% for the second.

First: Cc1ncc(-c2ccnc(Nc3cnccn3)c2)cc1NS(=O)(=O)c1ccc(F)cc1F [Compound I-310, 2,4-difluoro-N-[6-methyl-2′-(pyrazin-2-ylamino)-3,4′-bipyridin-5-yl]benzenesulfonamide]
Second: Cc1ncc(-c2ccnc(NC(=O)OCc3ccn(C)n3)c2)cc1NS(=O)(=O)c1ccc(F)cc1F [Compound I-326, (1-methyl-1H-pyrazol-3-yl)methyl (5-{[(2,4-difluorophenyl)sulfonyl]amino}-6-methyl-3,4′-bipyridin-2′-yl)carbamate]
The inhibition at 1.11 µM of the first is higher: greater than 99% for the first, 96% for the second.

First: Cc1ncc(-c2ccnc(NC(=O)C3CC3)c2)cc1NS(=O)(=O)N(C)C [Compound I-311, N-{5-[(dimethylsulfamoyl)amino]-6-methyl-3,4′-bipyridin-2′-yl}cyclopropanecarboxamide]
Second: CC(=O)Nc1cc(-c2cnc(C)c(NS(=O)(=O)c3cccc(F)c3Cl)c2)ccn1 [Compound I-322, N-(5-{[(2-chloro-3-fluorophenyl)sulfonyl]amino}-6-methyl-3,4′-bipyridin-2′-yl)acetamide]
The inhibition at 1.11 µM of the first is higher: greater than 99% for the first, 96% for the second.

First: Cc1nccc(Nc2cc(-c3cnc(Cl)c(N(C)C)c3C)ccn2)n1 [Compound I-314, 6-chloro-N5,N5,4-trimethyl-N2′-(2-methylpyrimidin-4-yl)-3,4′-bipyridine-2′,5-diamine]
Second: Cc1nccc(Nc2cc(-c3cnc(C)c(C(=O)N4CCCC4)c3)ccn2)n1 [Compound I-315, {6-methyl-2′-[(2-methylpyrimidin-4-yl)amino]-3,4′-bipyridin-5-yl}(pyrrolidin-1-yl)methanone]
The inhibition at 1.11 µM of the first is lower: 91% for the first, 92% for the second.

Compared with `CC(=O)Nc1cc(-c2cncc(S(=O)(=O)NC3C4CC5CC(C4)CC3C5)c2)ccn1` (stereo not drawn) [Compound I-318, N-[5-(adamantan-2-ylsulfamoyl)-3,4′-bipyridin-2′-yl]acetamide], `COC(=O)Nc1cc(-c2cncc(S(=O)(=O)N3CCOCC3)c2)ccn1` [Compound I-332, methyl[5-(morpholin-4-ylsulfonyl)-3,4′-bipyridin-2′-yl]carbamate] is higher in inhibition at 1.11 µM: 97% for the first, greater than 99% for the second.

Going from `CC(=O)Nc1cc(-c2cnc(C)c(N(CCO)S(=O)(=O)c3ccc(F)cc3F)c2)ccn1` [Compound I-319, N-(5-{[(2,4-difluorophenyl)sulfonyl](2-hydroxyethyl)amino}-6-methyl-3,4′-bipyridin-2′-yl)acetamide] to `COc1ncc(-c2ccnc(NC(C)=O)c2)cc1N(C)C(=O)c1ccc(F)cc1F` [Compound I-331, N-(2′-acetamido-6-methoxy-3,4′-bipyridin-5-yl)-2,4-difluoro-N-methylbenzamide], the inhibition at 1.11 µM falls from 94% to 93%.

Going from `CC(=O)Nc1cc(-c2cncc(N3CCCCS3(=O)=O)c2)ccn1` [Compound I-320, N-[5-(1,1-dioxido-1,2-thiazinan-2-yl)-3,4′-bipyridin-2′-yl]acetamide] to `CC(=O)Nc1cc(-c2cnc(N)c(N3CCCN(C)S3(=O)=O)c2)ccn1` [Compound I-323, N-[6-amino-5-(6-methyl-1,1-dioxido-1,2,6-thiadiazinan-2-yl)-3,4′-bipyridin-2′-yl]acetamide], the inhibition at 1.11 µM falls from 95% to 73%.

`CC(=O)Nc1cc(-c2cncc(S(=O)(=O)NCc3ccccc3)c2)ccn1` [Compound I-321, N-[5-(benzylsulfamoyl)-3,4′-bipyridin-2′-yl]acetamide] and `COc1ncc(-c2ccnc(NC(C)=O)c2)cc1S(=O)(=O)Nc1cccc(C(F)(F)F)c1` [Compound I-329, N-(6-methoxy-5-{[3-(trifluoromethyl)phenyl]sulfamoyl}-3,4′-bipyridin-2′-yl)acetamide] cannot be ordered by inhibition at 1.11 µM: greater than 99% for the first, greater than 99% for the second.

`Cc1ncc(-c2ccnc(NC(=O)OCC3(C)COC3)c2)cc1NS(=O)(=O)c1ccc(F)cc1F` [Compound I-324, (3-methyloxetan-3-yl)methyl (5-{[(2,4-difluorophenyl)sulfonyl]amino}-6-methyl-3,4′-bipyridin-2′-yl)carbamate] and `CNC1CN(c2cc(-c3ccnc(NC(C)=O)c3)cnc2C)S(=O)(=O)C1` (stereo not drawn) [Compound I-325, N-{6-methyl-5-[4-(methylamino)-1,1-dioxidoisothiazolidin-2-yl]-3,4′-bipyridin-2′-yl}acetamide] cannot be ordered by inhibition at 1.11 µM: greater than 99% for the first, greater than 99% for the second.
